From PubChem BioAssay (NCI) come the findings set out here.

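Five compound concentrations were applied to cells in 96-well plates for 48 hours; endpoints were derived by simple linear interpolation of the resulting dose-response curve. At the TGI there is no net growth.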

Among the test systems are RPMI-8226 leukemia; MDA-MB-435; LOX IMVI melanoma; SF-295 CNS; OVCAR-3 ovarian; COLO 205 colon; UO-31 renal; 786-0 renal; SNB-75 CNS; IGROV1 ovarian; M14 melanoma; MCF7 breast; SK-MEL-28 melanoma; SK-MEL-2 melanoma; NCI-H226 lung; SR leukemia; UACC-257 melanoma; SF-539 CNS; CAKI-1 renal; NCI-H522 lung.
Holding throughout (assay): NCI-60 cell line screen, 48 h

Consider `CCOC(=O)[C@@H]1OC(c2ccccc2)O[C@H]1C(=O)OCC`, for which the TGI with RPMI-8226 leukemia, in the experiment with MDA-MB-435, in the experiment on LOX IMVI melanoma, with SF-295 CNS, with OVCAR-3 ovarian and in the experiment on COLO 205 colon was more than 100 µM throughout. Further, the TGI with UO-31 renal, in the experiment on 786-0 renal, with SNB-75 CNS, in the experiment with IGROV1 ovarian, in the experiment with M14 melanoma and in the experiment with MCF7 breast was more than 100 µM in each case. The TGI with SK-MEL-28 melanoma, in the experiment on SK-MEL-2 melanoma, in the experiment on NCI-H226 lung, in the experiment with SR leukemia and in the experiment on UACC-257 melanoma was more than 100 µM in each case.
Consider `CCCCOCn1c(=O)[nH]c(=O)c2ccccc21`, for which the TGI in the experiment on MDA-MB-435, in the experiment with SF-539 CNS, with LOX IMVI melanoma, in the experiment with SF-295 CNS, with OVCAR-3 ovarian and with COLO 205 colon was more than 100 µM throughout. The TGI with UO-31 renal is 46.7 µM; with 786-0 renal, more than 100 µM; in the experiment with SNB-75 CNS, 82.9 µM; in the experiment with IGROV1 ovarian, more than 100 µM; with CAKI-1 renal, more than 100 µM; with M14 melanoma, more than 100 µM. The TGI with MCF7 breast, in the experiment on SK-MEL-28 melanoma, in the experiment with SK-MEL-2 melanoma, in the experiment on NCI-H226 lung, with SR leukemia and in the experiment with UACC-257 melanoma was more than 100 µM each time.
With `COc1ccc(/C=N/n2c(=O)[nH]c3ccccc3c2=O)cc1`, the TGI in the experiment with RPMI-8226 leukemia, in the experiment on MDA-MB-435, in the experiment on SF-539 CNS, in the experiment with LOX IMVI melanoma, in the experiment on SF-295 CNS and in the experiment on OVCAR-3 ovarian was more than 100 µM throughout. The TGI in the experiment on COLO 205 colon, in the experiment on UO-31 renal, with 786-0 renal, in the experiment on SNB-75 CNS, with IGROV1 ovarian and with CAKI-1 renal was more than 100 µM throughout. Moreover, the TGI with M14 melanoma, in the experiment on MCF7 breast, in the experiment with SK-MEL-28 melanoma, with SK-MEL-2 melanoma, in the experiment on NCI-H226 lung and in the experiment on SR leukemia was more than 100 µM in each case. This compound gave a TGI with UACC-257 melanoma of more than 100 µM.
Take `C=C1[C@H](OC(=O)C(C)C)[C@@H](OC(C)=O)[C@@H](OC(C)=O)C(C)(C)[C@@H]2O[C@H]2[C@@H](C)C(=O)[C@@]2(OC(C)=O)C[C@@](C)(OC(C)=O)[C@H](OC(C)=O)[C@@H]2[C@H]1OC(C)=O`: the TGI in the experiment with RPMI-8226 leukemia, with MDA-MB-435, in the experiment with SF-539 CNS, in the experiment on LOX IMVI melanoma, in the experiment on SF-295 CNS and with OVCAR-3 ovarian was more than 100 µM in each case. In addition, the TGI in the experiment with COLO 205 colon, with NCI-H522 lung, in the experiment with UO-31 renal, with 786-0 renal, in the experiment on IGROV1 ovarian and in the experiment on CAKI-1 renal was more than 100 µM in each case. In addition, the TGI with M14 melanoma, with MCF7 breast, with SK-MEL-2 melanoma, with NCI-H226 lung, in the experiment on SR leukemia and in the experiment with UACC-257 melanoma was more than 100 µM each time.
For `COc1cc(C2SCC(=O)N2Cc2ccccc2)cc(OC)c1OC` (stereo not drawn), the TGI with RPMI-8226 leukemia, in the experiment with MDA-MB-435, in the experiment on SF-539 CNS, in the experiment on LOX IMVI melanoma, with SF-295 CNS and with OVCAR-3 ovarian was more than 100 µM throughout. Moreover, the TGI in the experiment with COLO 205 colon, in the experiment on NCI-H522 lung, with UO-31 renal, in the experiment with 786-0 renal, in the experiment on IGROV1 ovarian and in the experiment on CAKI-1 renal was more than 100 µM throughout. Also, the TGI in the experiment with M14 melanoma, in the experiment on MCF7 breast, with SK-MEL-28 melanoma, with SK-MEL-2 melanoma, in the experiment on NCI-H226 lung and with SR leukemia was more than 100 µM each time. In the experiment with UACC-257 melanoma, this compound registered a TGI of more than 100 µM.
For the compound `Cc1cccc(NC(=S)Nc2ccc([N+](=O)[O-])cc2)n1`, the TGI in the experiment on RPMI-8226 leukemia, with MDA-MB-435, in the experiment on SF-539 CNS, in the experiment with LOX IMVI melanoma, in the experiment with SF-295 CNS and in the experiment with COLO 205 colon was more than 100 µM in each case. Besides, the TGI in the experiment on UO-31 renal, in the experiment with 786-0 renal, in the experiment on SNB-75 CNS, in the experiment with IGROV1 ovarian, in the experiment with CAKI-1 renal and in the experiment with M14 melanoma was more than 100 µM throughout. Moreover, the TGI in the experiment on MCF7 breast, in the experiment with SK-MEL-28 melanoma, with SK-MEL-2 melanoma, in the experiment on NCI-H226 lung, in the experiment with SR leukemia and with UACC-257 melanoma was more than 100 µM in each case.
Regarding `O=Nc1c(-c2c(O)[nH]c3ccccc23)[nH]c2ccccc12`, the TGI in the experiment with RPMI-8226 leukemia is 9.95 µM; in the experiment on MDA-MB-435 it was more than 39.7 µM; in the experiment on SF-539 CNS, more than 100 µM; in the experiment on LOX IMVI melanoma, 41.4 µM; in the experiment with SF-295 CNS, 99.2 µM; in the experiment on OVCAR-3 ovarian, more than 89.7 µM. Moreover, the TGI in the experiment on COLO 205 colon is 34.8 µM; in the experiment on NCI-H522 lung, 20.9 µM; in the experiment on UO-31 renal it was 13.4 µM; in the experiment on 786-0 renal, more than 49.9 µM; with SNB-75 CNS it was 16.5 µM; in the experiment with IGROV1 ovarian, 22 µM. Besides, the TGI in the experiment with CAKI-1 renal was 41 µM; in the experiment on M14 melanoma, 25.9 µM; in the experiment on MCF7 breast it was more than 23.9 µM; with SK-MEL-28 melanoma, 27.7 µM; in the experiment with SK-MEL-2 melanoma, 7.62 µM; in the experiment on SR leukemia, more than 100 µM. The compound further yielded a TGI in the experiment on UACC-257 melanoma of more than 72.3 µM.
